For this series, the target named is Cytochrome P450 3A4 (Homo sapiens, UniProt P08684). Description: CYP450 Enzyme Induction Study. How it is done: A final incubation system of 500 μL contained 50 μL of liver microsomes (protein concentration: 0.2 mg/mL, Corning), 1 μL of mixed specific substrates of CYP450 (CYP1A2, CYP2B6, CYP2C9, CYP2C19, CYP2D6, CYP3A4), 398 μL of PBS (pH 7.4), 1 μL of specific positive inhibitor (positive control) or test compound (in acetonitrile) and 50 μL of NADPH+MgCl2. Samples were prepared in duplicate of 0.5 mL for each CYP450 subtype. For each tube, the 450 μL mixed solution of substrates and enzyme and the NADPH solution were separately pre-incubated at 37° C. for 5 min. The 50 μL mixed solution of NADPH+MgCl2 was added for reaction. At 30 min, 50 μL of the mixture was taken and 300 μL of glacial acetonitrile containing an internal standard was added to terminate the reaction. Additionally, 2 blanks of 500 μL each were prepared in parallel without adding NADPH as the negative control group.
Chain of Cytochrome P450 3A4 (P08684 whole entry): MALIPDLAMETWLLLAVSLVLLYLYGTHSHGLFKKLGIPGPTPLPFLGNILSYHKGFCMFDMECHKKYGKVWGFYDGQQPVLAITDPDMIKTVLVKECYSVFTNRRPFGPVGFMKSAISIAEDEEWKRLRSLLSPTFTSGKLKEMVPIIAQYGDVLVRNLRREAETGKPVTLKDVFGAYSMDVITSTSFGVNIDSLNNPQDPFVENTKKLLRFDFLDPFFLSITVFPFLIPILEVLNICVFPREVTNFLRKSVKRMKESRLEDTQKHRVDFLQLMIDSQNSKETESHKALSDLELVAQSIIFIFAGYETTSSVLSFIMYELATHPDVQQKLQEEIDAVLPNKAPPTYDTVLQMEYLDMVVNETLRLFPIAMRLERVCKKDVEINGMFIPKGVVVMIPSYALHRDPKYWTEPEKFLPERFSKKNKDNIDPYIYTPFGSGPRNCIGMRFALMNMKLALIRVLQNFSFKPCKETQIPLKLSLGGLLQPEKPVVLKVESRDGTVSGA

Broadly, the IC50 is the concentration that gives 50% inhibition. The low end stands for inhibition by little substance, the high end for a need for much substance. For the compound `Cc1c(C(=O)Nc2ccc(F)c(C#N)c2)c(C)n(C)c1C(=O)C(=O)NC(C)C(F)(F)F` (stereo unspecified) [US12378192, Compound of formula I], the IC50 is more than 200 µM.

Values taken from BindingDB's records for patent US12378192 (Chia Tai Tianqing Pharmaceutical Group Co., 2025).
